Measurements from paper PMC5428521, “Identification of a Novel, Small Molecule Partial Agonist for the Cyclic AMP Sensor, EPAC1” (Scientific Reports, 2017).
Where two headings read alike, the source gives them in different places.

How the values were obtained:
[1] = test system: protein kinase A (PKA); assay: PKA kinase activity assay in HEK293T cell extracts; format: biochemical; conditions: 1 mM cAMP, compound 0.1 to 100 µM
Procedure: PKA activity was measured directly in cell extracts using the PKA Kinase Activity Assay Kit (Abcam) following the manufacturer's instructions. […] Cells were washed in ice-cold PBS containing phosphatase inhibitors, scrapped into Eppendorf tubes and centrifuged at 200 × g at 4 °C for 5 minutes. Supernatants were discarded and the cell pellet was re-suspended in Complete Lysis Buffer containing 1 mM DTT, 1 mM PMSF and protease inhibitor cocktail (Roche) and then incubated for 10 minutes on ice (on the rocking platform) followed by vortex and centrifugation at […] at 4 °C for 20 minutes. Cell extracts were then transferred to fresh Eppendorf tubes, assayed for protein content and then stored at -80 °C. […] Next, 10 μl of ATP was added to each well and incubated at 30 °C for 90 min, with gentle shaking. The reaction was stopped by aspirating the contents of each well and then 40 μl of PKA phosphospecific substrate antibody was added to each well and then the plate was covered with plastic wrap and incubated at room temperature for 60 min (with gentle shaking every 20 min). […] Fluorescence was then measured at 480/530 nm. […] PKA activity was then measured in the cell extracts using an ELISA assay according to the manufactures instructions. […]

[2] = molecular target: T1, EPAC1-CNB (Homo sapiens, UniProt O95398); assay: 8-NBD-cAMP competition assay with EPAC1-CNB; format: binding
T1 construct: EPAC1-CNB (amino acids 169–318 of EPAC1); made in house; host or cells: BL-21 Escherichia coli (pGEX-6P-1)
T1 sequence (O95398 169-318 isoform O95398-3): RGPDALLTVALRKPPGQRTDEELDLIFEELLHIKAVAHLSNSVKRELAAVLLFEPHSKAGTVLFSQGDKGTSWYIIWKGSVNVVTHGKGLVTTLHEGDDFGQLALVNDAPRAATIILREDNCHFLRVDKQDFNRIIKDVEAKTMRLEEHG
Procedure: Optimisation of assay conditions was performed in 96 well black assay plates (Greiner). Comparison of reference molecules, dose response curves and pilot screen were done in black, low volume 384 assay plates (Greiner). Liquids were dispensed using a Biomek Fx laboratory automation workstation with a 96-multichannel pipetting head (Beckman Coulter) for optimisation, whereas the Echo® Liquid Handler (Labcyte) and Wellmate automated dispenser (Thermo Matrix) were employed for pilot screens (see library screening).
This was done using the optimised assay conditions developed during the study. Library compounds were transferred from pre-prepared, 1000x stock Echo® 384 LDV source plates (Labcyte) into black, low volume 384 assay plates (Greiner) at 25 nl volumes, using an Echo® Liquid Handler (Labcyte), maintaining 0.1–1% DMSO throughout. EPAC1-CNB (0.8 µM) was immediately added using a Wellmate automated dispenser (Thermo Matrix). Plates were centrifuged at 800 rpm, 10 s, and then incubated for 30 minutes, RT, to promote compound-protein complex formation. […] The assay was incubated at room temperature and the fluorescence intensity at 480/535 nm (ex/em) was measured after 4–15 hours using the Envision plate reader.

[3] = molecular target: T2, EPAC1 (amino acids 149–881) (Homo sapiens, UniProt O95398); assay: In vitro GEF activity assay (MANT-GDP dissociation from Rap1), EPAC1; format: biochemical; conditions: 500 μM compound, 500 μM cAMP
T2 construct: recombinant EPAC1 (amino acids 149–881); made in house; host or cells: bacteria
T2 sequence (O95398 149-881 isoform O95398-3): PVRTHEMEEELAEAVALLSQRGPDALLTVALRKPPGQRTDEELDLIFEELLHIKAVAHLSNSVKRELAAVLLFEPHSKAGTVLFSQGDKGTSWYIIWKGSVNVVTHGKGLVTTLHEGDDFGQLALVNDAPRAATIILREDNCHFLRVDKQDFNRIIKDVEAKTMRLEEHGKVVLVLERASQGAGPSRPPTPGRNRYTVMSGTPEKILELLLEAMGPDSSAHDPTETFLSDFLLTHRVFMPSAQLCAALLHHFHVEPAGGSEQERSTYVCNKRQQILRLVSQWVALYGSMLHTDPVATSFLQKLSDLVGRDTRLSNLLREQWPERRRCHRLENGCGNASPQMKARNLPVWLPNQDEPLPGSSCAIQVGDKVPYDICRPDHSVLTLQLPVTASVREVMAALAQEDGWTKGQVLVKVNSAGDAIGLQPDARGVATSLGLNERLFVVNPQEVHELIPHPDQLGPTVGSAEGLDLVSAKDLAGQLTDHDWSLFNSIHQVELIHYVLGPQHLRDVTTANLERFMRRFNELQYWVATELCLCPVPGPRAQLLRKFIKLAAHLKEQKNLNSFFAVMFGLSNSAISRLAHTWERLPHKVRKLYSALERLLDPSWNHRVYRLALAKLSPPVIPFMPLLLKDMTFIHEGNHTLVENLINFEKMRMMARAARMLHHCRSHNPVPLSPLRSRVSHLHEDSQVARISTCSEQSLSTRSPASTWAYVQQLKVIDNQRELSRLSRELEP
Procedure: For this, we used the well-characterised EPAC GEF activity assay. The assay is based on the EPAC-stimulated dissociation of fluorescent MANT-GDP from recombinant Rap1 in the presence of excess non-fluorescent nucleotide.
The data are fitted as single exponential decay with off-set (red lines) to obtain the rate constants kobs, as shown in (b).
EPAC1 and EPAC2 in vitro GEF activities were calculated as previously described. Briefly, recombinant EPAC1 (amino acids 149–881) or EPAC2 (amino acids 280–993) were incubated at 100 nM with recombinant Rap1 (200 nM) preloaded with the fluorescent GDP analogue 2′/3′-O-(N-Methylanthraniloyl)guanosine 5-diphosphate (MANT-GDP) in the presence of 20 μM GDP and then the fluorescence intensity was measured at 360/450 nm (ex/em) over time. […] AC50 or IC50 values were determined from the plots of kobs against the concentration of the agonist and antagonist, respectively Table 1.

[4] = molecular target: T1, EPAC1-CNB; conditions: published Kd values shown for comparison; cited from earlier work
[5] = molecular target: GST (Schistosoma japonicum, UniProt P08515); assay: Ligand observed NMR (1D and waterLOGSY) with GST alone; format: binding; conditions: compound 50 µM, GST 2.5 µM
Chain of GST (P08515 whole entry): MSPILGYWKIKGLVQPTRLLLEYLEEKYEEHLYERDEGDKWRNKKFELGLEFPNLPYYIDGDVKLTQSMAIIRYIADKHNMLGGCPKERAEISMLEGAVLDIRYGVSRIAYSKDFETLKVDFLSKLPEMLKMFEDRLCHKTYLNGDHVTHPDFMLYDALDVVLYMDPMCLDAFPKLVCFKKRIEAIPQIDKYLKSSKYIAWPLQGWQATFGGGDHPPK
Excerpt: (§1) Given that I942 seems to exert selective agonist properties against EPAC1, but not EPAC2, we next sought to validate whether our isolated ligands can interact with EPAC1 and EPAC2. Ligand observed nuclear magnetic resonance (NMR) is a valuable tool for the identification and validation of small molecule ligands. We therefore used one dimensional proton (1D) and water-ligand observed by gradient spectroscopy (waterLOGSY) NMR to confirm the ability of I942 and I178 to bind to the purified CNBs of EPAC1 and EPAC2, in comparison with the commercially available EPAC1 antagonist, ESI-09[32]. In order to assess ligand/CNB interaction, 1D and waterLOGSY experiments were performed on each compound (50 µM) in the presence or absence of 2.5 µM EPAC-CNB. In the absence of protein, each test compound produced a well-resolved 1D spectrum and a region of each spectrum was chosen to display distinctive spectral peaks originating from the ligand (Fig. 6). In the absence of protein, the corresponding waterLOGSY peaks were small, or absent, due to the negligible signal produced by saturation transfer from water to the freely tumbling small molecule. […] In waterLOGSY spectra, protein-mediated saturation transfer can only occur if the protein-ligand complex has a substantial lifetime. […]
(§2) (A) One dimensional proton (1D) and waterLOGSY (WL) spectra were performed on samples containing hit compound I942 (50 µM) in the absence and presence of EPAC1-CNB, EPAC2-CNB or GST alone, as indicated (2.5 µM). […] Interaction between compound and protein was assessed through comparison of the compound alone and protein-compound sample spectra. […]
(§3) All NMR spectra were recorded on a Bruker AVANCE IIIHD 600 spectrometer equipped with a TCI cryoprobe at 285 K. Test compounds were prepared in deuterated DMSO and diluted to given experimental concentrations in NMR buffer (20 mM Na2PO4, pH 7.0, 50 mM NaCl, 0.1% (w/v) NaN3, 5% (v/v) D2O) with a final DMSO concentration below 0.1%. […] One dimensional proton (1D) and waterLOGSY spectra were recorded for all compounds tested, using pulse sequences as previously described. […]

[6] = molecular target: T3, EPAC2-CNB (Mus musculus, UniProt Q9EQZ6); assay: Ligand observed NMR (1D and waterLOGSY) with EPAC2-CNB; format: binding; conditions: compound 50 µM, protein 2.5 µM
T3 construct: EPAC2-CNB (amino acids 304–453 of EPAC2); made in house; host or cells: BL-21 Escherichia coli (pGEX-6P-1)
T3 sequence (Q9EQZ6 304-453 isoform Q9EQZ6-3): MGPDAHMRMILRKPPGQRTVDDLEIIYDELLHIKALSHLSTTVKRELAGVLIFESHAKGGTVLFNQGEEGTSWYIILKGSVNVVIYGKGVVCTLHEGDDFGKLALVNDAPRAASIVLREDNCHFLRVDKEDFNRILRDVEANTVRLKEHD
Excerpt: as §1, §2, §3

[7] = molecular target: T1, EPAC1-CNB; assay: Ligand observed NMR (1D and waterLOGSY) with EPAC1-CNB; format: binding; conditions: compound 50 µM, protein 2.5 µM
Excerpt: as §1, §2, §3

[8] = 7-point dose response, 75 µM top concentration, 0.75% DMSO, read-out: IC50, 8-NBD-cAMP binding assay
[9] = 8-NBD-cAMP 62.5 nM, EPAC1-CNB 0.8 µM, known competitor compounds, read-out: IC50, inhibition of 8-NBD-cAMP fluorescence

Row | Compound | IC50 [2, 8] | Kd [4] | IC50 [2, 9] | further results
1 | O=S(=O)(NCCNC/C=C/c1ccc(Br)cc1)c1cccc2cnccc12 [H-89, reference compound] | – | – | – | effect on PKA activity induced by cAMP [1]: dose-dependent inhibition
2 | N-[(4-chlorophenyl)sulfonyl]-2-(1-naphthyloxy)acetamide [I288] | ~70000 nM | – | – | –
3 | CC(=O)Nc1cccc(OCC(=O)NS(=O)(=O)c2ccc(C)cc2)c1 [I516, 2-[3-(acetylamino)phenoxy]-N-[(4-methylphenyl)sulfonyl]acetamide] | > 75000 nM | – | – | inhibition of cAMP-induced EPAC1 activity [3]: no detectable inhibitory effect
4 | Nc1ncnc2c1nc(Sc1ccc(Cl)cc1)n2[C@@H]1O[C@@H]2COP(=O)(O)O[C@H]2[C@H]1O [8-CPT, 8-CPT-cAMP, reference compound] | – | 40 nM | 530 nM | –
5 | CC(C)(C)c1cc(C(=O)C(C#N)=NNc2cccc(Cl)c2)no1 [ESI-09, 3-(5-tert-butyl-isoxazol-3-yl)-2-[(3-chloro-phenyl)-hydrazonol]-3-oxo-propionitrile, reference compound] | – | – | – | NMR interaction with GST alone [5]: may interact non-specifically with GST; NMR interaction [6]: attenuated; NMR interaction [7]: attenuated
6 | CO[C@@H]1[C@@H]2OP(=O)(O)OC[C@H]2O[C@H]1n1c(Sc2ccc(Cl)cc2)nc2c(N)ncnc21 [compound 007, 8-pCPT-2′-O-Me-cAMP, reference compound] | – | 630 nM | 1670 nM | –
